From patent publication US20260250318A1, “COMPOSITIONS AND METHODS FOR CROSSING THE BLOOD BRAIN BARRIER” (VOYAGER THERAPEUTICS, INC., priority 2022, published 2026)

Legend:
Conditions in all cases: synthetic library passage 3, intravenous, relative to wild-type AAV9
[1] = tested on: brain, spinal cord, and DRG of the NHPs; assay: NGS fold enrichment of synthetic library (passage 3) in NHPs, first cross-species screen; format: in vivo, cynomolgus macaques (Macaca fascicularis)
Outline: (§1)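 Fold enrichment versus wild-type AAV9 was derived by NGS of RT-PCR-amplified RNA from nervous tissue, collected e.g. 28 days after IV dosing […]. The library (passage 3) was given to two NHPs aged 2-4 years and to 6-8-week BALB/c and C57Bl/6 mice (n=3 each).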

brain [2] = assay: NGS fold enrichment of synthetic library (passage 3) in BALB/c mice, first cross-species screen; format: in vivo
Outline: as §1

brain [3] = assay: NGS fold enrichment of synthetic library (passage 3) in C57Bl/6 mice, first cross-species screen; format: in vivo
Outline: as §1

[4] = RNA from spinal cord of NHPs, NGS
[5] = RNA from brain of BALB/c mice, NGS
[6] = RNA from brain of C57Bl/6 mice, NGS

## GSGQNGGSSNRQQT
[1]; RNA NGS, brain of NHPs
  Fold enrichment over AAV9 in the brain of NHPs: 1.109 fold
[1]; RNA NGS, spinal cord of NHPs
  Fold enrichment over AAV9 in the spinal cord of NHPs: 2.594 fold
Brain [2]; RNA NGS, brain of BALB/c mice
  Fold enrichment over AAV9 in the brain of Mice (BALB/c): 0.844 fold
Brain [3]; RNA NGS, brain of C57Bl/6 mice
  Fold enrichment over AAV9 in the brain of Mice (C57Bl/6): 1.255 fold

## GFIFPKVSGQNQQT
[1]; RNA from brain of NHPs, NGS
  Fold enrichment over AAV9 in the brain of NHPs: 1.237 fold
[1]; [4]
  Fold enrichment over AAV9 in the spinal cord of NHPs: 0.000 fold
Brain [2]; [5]
  Fold enrichment over AAV9 in the brain of Mice (BALB/c): 0.692 fold
Brain [3]; [6]
  Fold enrichment over AAV9 in the brain of Mice (C57Bl/6): 1.764 fold

## GSGQNQQASGRQQT
[1]; RNA NGS, brain of NHPs
  Fold enrichment over AAV9 in the brain of NHPs: 1.458 fold
[1]; RNA NGS, spinal cord of NHPs
  Fold enrichment over AAV9 in the spinal cord of NHPs: 3.179 fold
Brain [2]; RNA NGS, brain of BALB/c mice
  Fold enrichment over AAV9 in the brain of Mice (BALB/c): 0.991 fold
Brain [3]; RNA NGS, brain of C57Bl/6 mice
  Fold enrichment over AAV9 in the brain of Mice (C57Bl/6): 0.943 fold

## GEVSRVLSGQNQQT
[1]; RNA from brain of NHPs, NGS
  Fold enrichment over AAV9 in the brain of NHPs: 1.318 fold
[1]; [4]
  Fold enrichment over AAV9 in the spinal cord of NHPs: 0.437 fold
Brain [2]; [5]
  Fold enrichment over AAV9 in the brain of Mice (BALB/c): 0.440 fold
Brain [3]; [6]
  Fold enrichment over AAV9 in the brain of Mice (C57Bl/6): 1.150 fold

## GSGQVHQAEVNQQT
[1]; RNA NGS, brain of NHPs
  Fold enrichment over AAV9 in the brain of NHPs: 1.825 fold
[1]; RNA NGS, spinal cord of NHPs
  Fold enrichment over AAV9 in the spinal cord of NHPs: 0.152 fold
Brain [2]; RNA NGS, brain of BALB/c mice
  Fold enrichment over AAV9 in the brain of Mice (BALB/c): 0.287 fold
Brain [3]; RNA NGS, brain of C57Bl/6 mice
  Fold enrichment over AAV9 in the brain of Mice (C57Bl/6): 0.436 fold

## GHAGSTGSGQNQQT
[1]; RNA from brain of NHPs, NGS
  Fold enrichment over AAV9 in the brain of NHPs: 1.352 fold
[1]; [4]
  Fold enrichment over AAV9 in the spinal cord of NHPs: 2.829 fold
Brain [2]; [5]
  Fold enrichment over AAV9 in the brain of Mice (BALB/c): 1.233 fold
Brain [3]; [6]
  Fold enrichment over AAV9 in the brain of Mice (C57Bl/6): 1.332 fold

## GSGQNQQHSLSSQT
[1]; RNA from brain of NHPs, NGS
  Fold enrichment over AAV9 in the brain of NHPs: 1.150 fold
[1]; [4]
  Fold enrichment over AAV9 in the spinal cord of NHPs: 3.844 fold
Brain [2]; [5]
  Fold enrichment over AAV9 in the brain of Mice (BALB/c): 0.730 fold
Brain [3]; [6]
  Fold enrichment over AAV9 in the brain of Mice (C57Bl/6): 0.700 fold

## GSGQIVSTQTNQQT
[1]; RNA NGS, brain of NHPs
  Fold enrichment over AAV9 in the brain of NHPs: 1.456 fold
[1]; RNA NGS, spinal cord of NHPs
  Fold enrichment over AAV9 in the spinal cord of NHPs: 1.103 fold
Brain [2]; RNA NGS, brain of BALB/c mice
  Fold enrichment over AAV9 in the brain of Mice (BALB/c): 0.512 fold
Brain [3]; RNA NGS, brain of C57Bl/6 mice
  Fold enrichment over AAV9 in the brain of Mice (C57Bl/6): 0.453 fold

## GIILGASSGQNQQT
[1]; RNA NGS, brain of NHPs
  Fold enrichment over AAV9 in the brain of NHPs: 3.630 fold
[1]; RNA NGS, spinal cord of NHPs
  Fold enrichment over AAV9 in the spinal cord of NHPs: 4.868 fold
Brain [2]; RNA NGS, brain of BALB/c mice
  Fold enrichment over AAV9 in the brain of Mice (BALB/c): 0.865 fold
Brain [3]; RNA NGS, brain of C57Bl/6 mice
  Fold enrichment over AAV9 in the brain of Mice (C57Bl/6): 1.378 fold

## GVVAHQPSGQNQQT
[1]; RNA NGS, brain of NHPs
  Fold enrichment over AAV9 in the brain of NHPs: 2.103 fold
[1]; RNA NGS, spinal cord of NHPs
  Fold enrichment over AAV9 in the spinal cord of NHPs: 0.152 fold
Brain [2]; RNA NGS, brain of BALB/c mice
  Fold enrichment over AAV9 in the brain of Mice (BALB/c): 2.267 fold
Brain [3]; RNA NGS, brain of C57Bl/6 mice
  Fold enrichment over AAV9 in the brain of Mice (C57Bl/6): 0.910 fold

## GSGQNKQMLSGNTT
[1]; RNA from brain of NHPs, NGS
  Fold enrichment over AAV9 in the brain of NHPs: 1.410 fold
[1]; [4]
  Fold enrichment over AAV9 in the spinal cord of NHPs: 2.219 fold
Brain [2]; [5]
  Fold enrichment over AAV9 in the brain of Mice (BALB/c): 0.404 fold
Brain [3]; [6]
  Fold enrichment over AAV9 in the brain of Mice (C57Bl/6): 1.074 fold

## GSGQNQQHHSSHTT
[1]; RNA from brain of NHPs, NGS
  Fold enrichment over AAV9 in the brain of NHPs: 1.328 fold
[1]; [4]
  Fold enrichment over AAV9 in the spinal cord of NHPs: 2.158 fold
Brain [2]; [5]
  Fold enrichment over AAV9 in the brain of Mice (BALB/c): 0.452 fold
Brain [3]; [6]
  Fold enrichment over AAV9 in the brain of Mice (C57Bl/6): 0.957 fold

## GSGQLPRQMTNQQT
[1]; RNA from brain of NHPs, NGS
  Fold enrichment over AAV9 in the brain of NHPs: 1.376 fold
[1]; [4]
  Fold enrichment over AAV9 in the spinal cord of NHPs: 3.550 fold
Brain [2]; [5]
  Fold enrichment over AAV9 in the brain of Mice (BALB/c): 0.562 fold
Brain [3]; [6]
  Fold enrichment over AAV9 in the brain of Mice (C57Bl/6): 0.400 fold

## GSGLGRAPVQNQQT
[1]; RNA NGS, brain of NHPs
  Fold enrichment over AAV9 in the brain of NHPs: 2.503 fold
[1]; RNA NGS, spinal cord of NHPs
  Fold enrichment over AAV9 in the spinal cord of NHPs: 2.214 fold
Brain [2]; RNA NGS, brain of BALB/c mice
  Fold enrichment over AAV9 in the brain of Mice (BALB/c): 0.383 fold
Brain [3]; RNA NGS, brain of C57Bl/6 mice
  Fold enrichment over AAV9 in the brain of Mice (C57Bl/6): 0.841 fold

## GSGQDMKQHHNQQT
[1]; RNA NGS, brain of NHPs
  Fold enrichment over AAV9 in the brain of NHPs: 1.501 fold
[1]; RNA NGS, spinal cord of NHPs
  Fold enrichment over AAV9 in the spinal cord of NHPs: 1.638 fold
Brain [2]; RNA NGS, brain of BALB/c mice
  Fold enrichment over AAV9 in the brain of Mice (BALB/c): 0.239 fold
Brain [3]; RNA NGS, brain of C57Bl/6 mice
  Fold enrichment over AAV9 in the brain of Mice (C57Bl/6): 0.358 fold

## GATLQVHSGQNQQT
[1]; RNA NGS, brain of NHPs
  Fold enrichment over AAV9 in the brain of NHPs: 2.122 fold
[1]; RNA NGS, spinal cord of NHPs
  Fold enrichment over AAV9 in the spinal cord of NHPs: 2.219 fold
Brain [2]; RNA NGS, brain of BALB/c mice
  Fold enrichment over AAV9 in the brain of Mice (BALB/c): 0.545 fold
Brain [3]; RNA NGS, brain of C57Bl/6 mice
  Fold enrichment over AAV9 in the brain of Mice (C57Bl/6): 0.623 fold

## GLSNPMPSGQNQQT
[1]; RNA NGS, brain of NHPs
  Fold enrichment over AAV9 in the brain of NHPs: 2.280 fold
[1]; RNA NGS, spinal cord of NHPs
  Fold enrichment over AAV9 in the spinal cord of NHPs: 6.033 fold
Brain [2]; RNA NGS, brain of BALB/c mice
  Fold enrichment over AAV9 in the brain of Mice (BALB/c): 0.829 fold
Brain [3]; RNA NGS, brain of C57Bl/6 mice
  Fold enrichment over AAV9 in the brain of Mice (C57Bl/6): 1.190 fold

## GSGSHHASRQNQQT
[1]; RNA NGS, brain of NHPs
  Fold enrichment over AAV9 in the brain of NHPs: 1.712 fold
[1]; RNA NGS, spinal cord of NHPs
  Fold enrichment over AAV9 in the spinal cord of NHPs: 0.451 fold
Brain [2]; RNA NGS, brain of BALB/c mice
  Fold enrichment over AAV9 in the brain of Mice (BALB/c): 0.584 fold
Brain [3]; RNA NGS, brain of C57Bl/6 mice
  Fold enrichment over AAV9 in the brain of Mice (C57Bl/6): 3.073 fold

## GSGMIHTTAQNQQT
[1]; RNA from brain of NHPs, NGS
  Fold enrichment over AAV9 in the brain of NHPs: 1.285 fold
[1]; [4]
  Fold enrichment over AAV9 in the spinal cord of NHPs: 0.105 fold
Brain [2]; [5]
  Fold enrichment over AAV9 in the brain of Mice (BALB/c): 0.276 fold
Brain [3]; [6]
  Fold enrichment over AAV9 in the brain of Mice (C57Bl/6): 0.678 fold

## GSGQNQQTGSSSRV
[1]; RNA from brain of NHPs, NGS
  Fold enrichment over AAV9 in the brain of NHPs: 1.176 fold
[1]; [4]
  Fold enrichment over AAV9 in the spinal cord of NHPs: 0.580 fold
Brain [2]; [5]
  Fold enrichment over AAV9 in the brain of Mice (BALB/c): 1.128 fold
Brain [3]; [6]
  Fold enrichment over AAV9 in the brain of Mice (C57Bl/6): 0.995 fold
